Where two headings read alike, the source gives them in different places.
Tests used:
[1] = in vitro; conditions: PAMPA, pH 7.4
[2] = biological target: T1, MAO B (Homo sapiens, UniProt P27338); assay: MAO B inhibition (fluorimetric kynuramine assay, inhibition kinetics); assay type: biochemical; conditions: mean ± SEM, n = 3
T1 construct: purchased Sigma-Aldrich
T1 sequence (P27338 1-520): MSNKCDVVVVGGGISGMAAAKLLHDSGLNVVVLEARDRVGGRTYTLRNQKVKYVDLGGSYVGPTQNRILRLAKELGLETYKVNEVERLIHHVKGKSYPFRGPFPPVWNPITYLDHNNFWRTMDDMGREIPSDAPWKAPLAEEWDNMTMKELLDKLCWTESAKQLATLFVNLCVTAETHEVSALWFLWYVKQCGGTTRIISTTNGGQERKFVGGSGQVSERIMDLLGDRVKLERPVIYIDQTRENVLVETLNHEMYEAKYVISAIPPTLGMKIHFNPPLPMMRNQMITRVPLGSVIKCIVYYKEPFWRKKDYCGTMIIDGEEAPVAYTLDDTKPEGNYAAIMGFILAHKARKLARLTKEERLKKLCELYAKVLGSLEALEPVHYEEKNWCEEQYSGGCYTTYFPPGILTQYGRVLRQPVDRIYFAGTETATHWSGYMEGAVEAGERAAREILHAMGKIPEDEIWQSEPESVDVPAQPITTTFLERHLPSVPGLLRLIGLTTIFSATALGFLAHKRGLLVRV

[3] = biological target: T2, eeAChE (AChE from electric eel) (Electrophorus electricus, UniProt O42275); assay: biochemical; conditions: mean ± SEM, n = 3
T2 construct: purchased Sigma-Aldrich, Milan, Italy

[4] = biological target: T3, hMAO A (Homo sapiens, UniProt P21397); assay: MAO A inhibition (fluorimetric kynuramine assay); assay type: biochemical; conditions: mean ± SEM, n = 3
T3 construct: purchased Sigma-Aldrich
T3 sequence (P21397 1-527): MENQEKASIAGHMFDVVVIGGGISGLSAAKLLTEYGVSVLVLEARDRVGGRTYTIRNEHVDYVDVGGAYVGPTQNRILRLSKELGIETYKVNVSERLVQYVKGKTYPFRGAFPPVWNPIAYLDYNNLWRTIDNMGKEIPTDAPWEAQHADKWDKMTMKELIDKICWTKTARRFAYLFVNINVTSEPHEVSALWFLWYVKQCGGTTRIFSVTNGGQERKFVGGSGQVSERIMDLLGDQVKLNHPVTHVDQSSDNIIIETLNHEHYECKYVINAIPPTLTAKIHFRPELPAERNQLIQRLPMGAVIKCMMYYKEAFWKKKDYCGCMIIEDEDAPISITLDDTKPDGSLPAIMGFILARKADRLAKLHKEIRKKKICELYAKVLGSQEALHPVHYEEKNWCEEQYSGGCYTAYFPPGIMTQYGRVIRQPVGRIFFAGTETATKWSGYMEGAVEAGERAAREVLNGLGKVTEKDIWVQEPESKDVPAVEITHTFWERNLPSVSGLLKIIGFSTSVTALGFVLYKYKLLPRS

[5] = biological target: T4, Aβ40 (Homo sapiens, UniProt P05067); assay: Inhibition of self-induced Aβ40 aggregation (ThT fluorescence, HFIP); assay type: biochemical; conditions: Aβ40 30 μM, mean ± SEM, n = 3; for IC50: 2 h at 25 °C, PBS 2% HFIP, read-out: Aβ40 aggr IC50; for inhibition at 100 µM: read-out: Aβ40 aggr % inhibition
T4 construct: samples of Aβ40 (30 μM) were coincubated for 2 h at 25 °C with test molecules; purchased EzBiolab, Carmel, IN, USA
Description: In vitro inhibition of Aβ40 aggregation was assessed following a previously reported thioflavin T (ThT) fluorescence-based method involving the use of hexafluoroisopropanol (HFIP) as aggregation enhancer. […].
In vitro inhibition assay of Aβ40 aggregation has been previously reported[41] and adapted to a 96-well plate platform.
After incubation in 96-well black, nonbinding microplates (Greiner Bio-One GmbH, Frickenhausen, Germany), thioflavin T (25 μM) was added and fluorimetric reads (ex 440, em 485 nm) were performed in a multiplate reader Infinite M1000 Pro (Tecan, Cernusco sul Naviglio, Italy). Experiments were run in triplicate. Results were expressed by statistical analysis while IC50 values were obtained by nonlinear regression using Prism software (GraphPad Prism version 5.00 for Windows, GraphPad Software, San Diego, CA, USA).

[6] = biological target: T5, esBChE (BChE from equine serum) (Equus caballus, UniProt P81908); assay: biochemical; conditions: at 10 μM; mean ± SEM, n = 3
T5 construct: BChE from horse serum (13 U/mL); purchased Sigma-Aldrich, Milan, Italy; host or cells: horse serum

[7] = system: AChE; design: method as in PMID 25924599; conditions: first series; cited from earlier work
[8] = biological target: T1, MAO B; assay: MAO B kynuramine assay in spectrophotometric mode (4-hydroxyquinoline absorbance at 316 nm), incl. time course; assay type: biochemical; conditions: 100 nM inhibitor

T5 sequence (P81908 whole entry): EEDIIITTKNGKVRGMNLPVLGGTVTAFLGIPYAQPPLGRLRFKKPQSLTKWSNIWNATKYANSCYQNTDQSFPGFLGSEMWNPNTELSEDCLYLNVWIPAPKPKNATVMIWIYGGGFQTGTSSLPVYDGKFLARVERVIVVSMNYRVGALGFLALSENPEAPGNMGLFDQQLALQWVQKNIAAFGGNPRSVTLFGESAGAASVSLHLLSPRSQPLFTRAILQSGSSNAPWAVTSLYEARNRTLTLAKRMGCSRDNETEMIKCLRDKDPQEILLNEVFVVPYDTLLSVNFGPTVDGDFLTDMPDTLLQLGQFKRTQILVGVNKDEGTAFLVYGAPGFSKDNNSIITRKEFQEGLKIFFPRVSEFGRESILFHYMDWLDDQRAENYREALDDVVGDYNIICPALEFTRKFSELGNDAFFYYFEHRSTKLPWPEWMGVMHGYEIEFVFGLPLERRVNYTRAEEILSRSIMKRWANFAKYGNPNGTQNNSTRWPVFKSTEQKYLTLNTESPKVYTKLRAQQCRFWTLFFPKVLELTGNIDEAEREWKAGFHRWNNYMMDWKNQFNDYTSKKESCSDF
T4 sequence (P05067 672-711 limits assumed): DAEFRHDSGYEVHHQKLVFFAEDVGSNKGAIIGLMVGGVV
T2 sequence (O42275 24-633): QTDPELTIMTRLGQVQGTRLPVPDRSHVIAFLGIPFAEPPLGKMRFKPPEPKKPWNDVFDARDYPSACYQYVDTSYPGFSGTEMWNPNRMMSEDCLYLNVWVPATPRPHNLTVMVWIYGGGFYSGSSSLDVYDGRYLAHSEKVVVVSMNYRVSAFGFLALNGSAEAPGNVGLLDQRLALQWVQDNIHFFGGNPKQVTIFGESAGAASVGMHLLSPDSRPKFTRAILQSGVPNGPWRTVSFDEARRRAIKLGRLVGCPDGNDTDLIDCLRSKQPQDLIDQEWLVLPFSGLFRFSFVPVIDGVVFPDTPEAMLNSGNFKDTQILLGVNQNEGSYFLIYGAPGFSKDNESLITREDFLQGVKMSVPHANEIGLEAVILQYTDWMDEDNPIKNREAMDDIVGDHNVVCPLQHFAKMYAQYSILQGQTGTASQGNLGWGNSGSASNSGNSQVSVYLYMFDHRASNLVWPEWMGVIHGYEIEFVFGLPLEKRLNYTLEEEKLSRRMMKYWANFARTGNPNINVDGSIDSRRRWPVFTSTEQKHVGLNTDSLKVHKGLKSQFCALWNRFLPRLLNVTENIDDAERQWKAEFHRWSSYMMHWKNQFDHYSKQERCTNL

Structure (SMILES): CN(C)CCCN1c2ccccc2Sc2ccc(Cl)cc21 [Chlorpromazine]
- Papp at 16 h [1]: 7.2 ×10⁻⁶ cm/s

Structure (SMILES): O=C1C(Cl)=C(NC(Cc2ccccc2)C(=O)O)C(=O)c2ccccc21 (stereo not shown) [Compound 8]
- IC50 [2]: 2.7 ± 0.8 µM
- IC50 [3]: 13 ± 2 µM
- inhibition at 10 µM [4]: 26%
- CNS prediction (based on the PAMPA-BBB classification range from Di et al.): CNS+
- Papp at 16 h [1]: 6.1 ± 0.4 ×10⁻⁶ cm/s
- IC50 [5]: 17 ± 2 µM
- inhibition at 10 µM [6]: 14%

Structure (SMILES): O=C1c2ccccc2C(=O)c2c(NCC[C@@H]3CCCN4CCCC[C@H]34)cccc21 [X]
- IC50 [7]: 0.84 µM

Structure (SMILES): O=C1C(Cl)=C(NCCn2cnc3ccccc32)C(=O)c2ccccc21 [Compound 6, 2-[2-(1H-Benzimidazol-1-yl)ethylamino]-3-chloro-1,4-naphthoquinone]
- inhibition at 10 µM [2]: 24%
- IC50 [3]: 6.8 ± 0.7 µM
- inhibition at 10 µM [4]: 23%
- IC50 [5]: 19 ± 4 µM
- inhibition at 10 µM [6]: 24%

Structure (SMILES): O=C1C(Cl)=C(NCCn2nnc3ccccc32)C(=O)c2ccccc21 [Compound 7, 2-{[2-(1H-Benzotriazol-1-yl)ethy]amino}-3-chloro-1,4-naphthoquinone]
- IC50 [2]: 0.48 ± 0.08 µM
- IC50 [3]: 1.7 ± 0.1 µM
- inhibition at 10 µM [4]: 21%
- IC50 [5]: 8.7 ± 0.4 µM
- inhibition at 10 µM [6]: 15%

Structure (SMILES): CC(=O)[C@H]1CC[C@H]2[C@@H]3CCC4=CC(=O)CC[C@]4(C)[C@H]3CC[C@]12C [Progesterone]
- Papp at 16 h [1]: 11.7 ×10⁻⁶ cm/s

Structure (SMILES): C#CCN(C)Cc1ccccc1 [pargyline, reference compound]
- MAO B enzymatic activity in time course ([8]; 1 h preincubation with enzyme): completely inhibited
- time until MAO B enzymatic activity came to saturation ([8]; no preincubation): about 1 h

Structure (SMILES): Clc1cccc(Cl)c1N=C1NCCN1 [Clonidine]
- Papp at 16 h [1]: 5.6 ×10⁻⁶ cm/s

Structure (SMILES): CN1C(C(=O)Nc2ccccn2)=C(O)c2ccccc2S1(=O)=O [Piroxicam]
- Papp [1]: 1.6 ×10⁻⁶ cm/s

Structure (SMILES): NCCc1ccc(O)c(O)c1 [Dopamine]
- Papp at 16 h [1]: 0.6 ×10⁻⁶ cm/s

Structure (SMILES): O=c1c(O)c(-c2ccc(O)c(O)c2)oc2cc(O)cc(O)c12 [quercetin, reference compound]
- CNS prediction (PAMPA): CNS-
- Papp at 16 h [1]: 0.14 ± 0.06 ×10⁻⁶ cm/s

Structure (SMILES): O=C1C(Cl)=C(Nc2ccccc2)C(=O)c2ccccc21 [Compound 1]
- inhibition at 10 µM [2]: 22%
- inhibition at 10 µM ([3]; at 10 μM): 39%
- inhibition at 10 µM [4]: < 5%
- inhibition at 100 µM [5]: ~60%
- inhibition at 10 µM [6]: 8%

Structure (SMILES): CCn1cc(C(=O)O)c(=O)c2cc(F)c(N3CCNCC3)cc21 [Norfloxacin]
- Papp at 16 h [1]: 0.3 ×10⁻⁶ cm/s

Structure (SMILES): CCn1cc(C(=O)O)c(=O)c2cc(F)c(N3CCNC(C)C3)c(F)c21 (stereo not shown) [Lomefloxacin]
- Papp at 16 h [1]: 1.5 ×10⁻⁶ cm/s

Structure (SMILES): O=C1C=C(NC[C@@H]2CCCN3CCCC[C@H]23)C(=O)c2ccccc21 [I]
- IC50 [7]: 5.8 µM

Structure (SMILES): O=C1C(Cl)=C(NCCCc2ccccc2)C(=O)c2ccccc21 [Compound 4, 2-Chloro-3-(phenylpropylamino)-1,4-naphthoquinone]
- IC50 [2]: 0.054 ± 0.001 µM
- IC50 [3]: 3.5 ± 0.3 µM
- IC50 [4]: 3 ± 0.2 µM
- IC50 [5]: 8.2 ± 0.3 µM
- inhibition at 10 µM [6]: 35%

Structure (SMILES): O=C1C(Cl)=C(NC(Cc2c[nH]c3ccccc23)C(=O)O)C(=O)c2ccccc21 (stereo not shown) [Compound 9]
- inhibition at 10 µM [2]: 52%
- IC50 [3]: 11 ± 1 µM
- inhibition at 10 µM [4]: 22%
- IC50 [5]: 14 ± 2 µM
- inhibition at 10 µM [6]: 17%

Structure (SMILES): O=C1c2ccccc2C(=O)c2c(NCc3ccccc3)cccc21 [Compound 10, 1-(Benzylamino)-9,10-anthraquinone]
- inhibition at 10 µM [2]: 34%
- IC50 [3]: 8.7 ± 0.5 µM
- IC50 [4]: 1.1 ± 0.3 µM
- inhibition at 100 µM [5]: ~60%
- inhibition at 10 µM [6]: 24%

Structure (SMILES): O=C1c2ccccc2C(=O)c2c(NCCc3c[nH]c4ccccc34)cccc21 [Compound 13, 1-{[2-(1H-Indol-3-yl)ethyl]amino}-9,10-anthraquinone]
- inhibition at 10 µM [2]: 42%
- IC50 [3]: 1.85 ± 0.04 µM
- inhibition at 10 µM [4]: 25%
- inhibition at 100 µM [5]: ~60%
- inhibition at 10 µM [6]: 17%

— article PMC7880572 (ACS Chemical Neuroscience, 2021)
